{"source": "patent US20220125784A1", "about": "“METHODS AND COMPOUNDS FOR INHIBITION OF INACTIVATION OF VOLTAGE-GATED SODIUM CHANNELS” (SIMON FRASER UNIVERSITY, priority 2019, published 2022)", "note": "pIC50: −log10 of the molar value. “Also recorded” adds a separate entry of the source.", "data": [{"target": "T1, WT Nav1.5-α subunits (Homo sapiens, UniProt Q14524)", "T1 construct": "expressed in transfected cells; host or cells: HEK293 (transient transfection)", "T1 sequence (Q14524 whole entry)": "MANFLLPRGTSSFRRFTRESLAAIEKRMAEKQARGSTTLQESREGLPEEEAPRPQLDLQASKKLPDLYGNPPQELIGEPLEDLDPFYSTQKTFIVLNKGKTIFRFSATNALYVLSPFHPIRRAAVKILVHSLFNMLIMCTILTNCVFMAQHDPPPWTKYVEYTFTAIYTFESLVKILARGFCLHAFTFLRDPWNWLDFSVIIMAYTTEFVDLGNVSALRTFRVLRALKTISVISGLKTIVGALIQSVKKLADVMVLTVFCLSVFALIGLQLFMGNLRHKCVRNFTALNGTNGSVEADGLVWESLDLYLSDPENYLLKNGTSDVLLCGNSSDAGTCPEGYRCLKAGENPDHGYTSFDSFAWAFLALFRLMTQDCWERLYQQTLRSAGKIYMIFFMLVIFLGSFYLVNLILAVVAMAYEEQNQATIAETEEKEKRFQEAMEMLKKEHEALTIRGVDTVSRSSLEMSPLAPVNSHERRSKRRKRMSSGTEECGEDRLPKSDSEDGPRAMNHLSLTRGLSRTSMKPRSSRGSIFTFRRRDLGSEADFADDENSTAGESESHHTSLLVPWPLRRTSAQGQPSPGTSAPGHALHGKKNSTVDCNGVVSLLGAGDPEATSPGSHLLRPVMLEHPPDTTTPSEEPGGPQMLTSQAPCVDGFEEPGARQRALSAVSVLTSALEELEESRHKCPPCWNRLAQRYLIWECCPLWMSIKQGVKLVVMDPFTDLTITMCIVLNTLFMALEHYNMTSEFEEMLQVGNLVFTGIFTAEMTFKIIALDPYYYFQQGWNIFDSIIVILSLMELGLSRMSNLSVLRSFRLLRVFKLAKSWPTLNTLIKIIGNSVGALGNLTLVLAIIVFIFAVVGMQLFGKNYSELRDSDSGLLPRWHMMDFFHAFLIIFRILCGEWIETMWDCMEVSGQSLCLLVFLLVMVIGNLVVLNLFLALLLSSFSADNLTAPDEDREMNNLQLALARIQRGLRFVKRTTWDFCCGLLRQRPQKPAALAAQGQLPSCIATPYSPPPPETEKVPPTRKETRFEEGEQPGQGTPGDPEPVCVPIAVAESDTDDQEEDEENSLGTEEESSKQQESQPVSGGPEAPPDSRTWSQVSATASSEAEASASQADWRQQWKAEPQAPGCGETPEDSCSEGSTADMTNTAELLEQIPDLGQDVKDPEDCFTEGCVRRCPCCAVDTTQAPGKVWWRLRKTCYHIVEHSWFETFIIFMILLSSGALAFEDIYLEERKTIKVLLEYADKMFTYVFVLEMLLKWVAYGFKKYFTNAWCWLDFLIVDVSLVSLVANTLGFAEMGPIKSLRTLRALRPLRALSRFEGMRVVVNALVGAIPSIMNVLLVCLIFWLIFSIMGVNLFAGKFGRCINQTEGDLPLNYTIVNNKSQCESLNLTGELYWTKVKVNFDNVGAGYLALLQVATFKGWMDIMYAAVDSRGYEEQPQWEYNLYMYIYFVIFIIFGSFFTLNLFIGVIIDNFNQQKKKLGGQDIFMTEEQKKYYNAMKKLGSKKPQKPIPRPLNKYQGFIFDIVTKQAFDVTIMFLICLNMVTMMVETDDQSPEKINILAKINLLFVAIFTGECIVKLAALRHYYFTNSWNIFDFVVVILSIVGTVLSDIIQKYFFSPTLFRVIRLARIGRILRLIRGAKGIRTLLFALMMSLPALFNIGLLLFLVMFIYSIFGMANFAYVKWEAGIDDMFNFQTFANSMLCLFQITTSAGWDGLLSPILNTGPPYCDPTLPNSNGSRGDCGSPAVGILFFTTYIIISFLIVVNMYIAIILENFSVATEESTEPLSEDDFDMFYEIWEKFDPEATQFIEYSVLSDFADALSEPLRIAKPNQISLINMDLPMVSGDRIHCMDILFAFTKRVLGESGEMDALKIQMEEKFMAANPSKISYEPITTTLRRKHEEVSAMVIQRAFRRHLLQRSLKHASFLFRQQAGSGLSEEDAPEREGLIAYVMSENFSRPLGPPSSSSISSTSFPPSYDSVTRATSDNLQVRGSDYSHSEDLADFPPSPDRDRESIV", "assay": "Whole-cell patch clamp, use-dependence (slow inactivation) protocol at 6 Hz in transiently transfected HEK293 cells", "format": "cell-based", "conditions": "6 Hz", "procedure": "(§1) In one set of studies, we used a whole-cell patch clamp technique with single voltage-pulse protocols (FIGS. 3A-B) to characterize compounds ZINC38767171, ZINC39699427, ZINC40014265, ZINC64470729, ZINC64470737 and ZINC64470745. Whole-cell patch clamp was performed in extracellular solution containing (in mM): 140 NaCl, 4 KCl, 2 CaCl2, 1 MgCl2, and 10 HEPES (pH 7.4 adjusted with CsOH). The intracellular pipettes were dipped in dental wax and thermally polished to attain a resistance of 1.0-1.5 MΩ. The intracellular solutions contained (in mM): 130 CsF, 10 NaCl, 10 HEPES, and 10 EGTA titrated to pH 7.4. The six compounds, ZINC38767171, ZINC39699427, ZINC40014265, ZINC64470729, ZINC64470737 and ZINC64470745, chosen for electrophysiology characterization, ordered from MolPort (Easy compound ordering services), were diluted to 10 μM, 50 μM, and 100 μM in extracellular solution for biophysical assessment of channel gating.\n(§2) The six compounds were screened against wild type (WT) Nav1.5-α subunits at the optimal physiological temperature of 37° C. Human Embryonic Kidney (HEK293) cells were transfected with WT Nav1.5-α subunits (transient transfections). The α subunits were co-expressed with the β1 subunit and eGFP (enhanced green fluorescence protein) in a 2:1:2 ratio, respectively.\n(§3) Slow inactivation (SI) was indirectly determined by measuring use-dependence, which is a physiologically-relevant protocol. The protocol includes a series of 500 110 ms depolarizing pulses to 0 mV followed by a 55 ms-90 mV recovery pulse at a frequency 6 Hz. With repetitive depolarizations, Nav1.5 channels accumulate into slow inactivation.", "values": [{"smiles": "C=CCNS(=O)(=O)c1ccc2c(c1)=NC(=O)N=2", "note": "[ZINC39699427, N-allyl-2-oxo-benzimidazole-5-sulfonamide]", "effect on use-dependence": "significantly increases"}]}, {"target": "T1, WT Nav1.5-α subunits", "assay": "Whole-cell patch clamp, use-dependence (slow inactivation) protocol at 6 Hz in transiently transfected HEK293 cells", "format": "cell-based", "conditions": "Hill curve slope", "procedure": "as §1, §2, §3", "values": [{"smiles": "O=C1N=c2ccc(C(=O)NCc3ccco3)cc2=NC1=O", "note": "[ZINC38767171, N-(2-furylmethyl)-2,3-dioxo-quinoxaline-6-carboxamide]", "UDI Block Slope": 3.161}, {"smiles": "C=CCNS(=O)(=O)c1ccc2c(c1)=NC(=O)N=2", "note": "[ZINC39699427, N-allyl-2-oxo-benzimidazole-5-sulfonamide]", "UDI Block Slope": 4.556}]}, {"target": "T1, WT Nav1.5-α subunits", "assay": "Whole-cell patch clamp, use-dependence (slow inactivation) protocol at 6 Hz in transiently transfected HEK293 cells", "format": "cell-based", "conditions": "Hill curve; use-dependence at 6 Hz; read-out: UDI Block IC50", "procedure": "as §1, §2, §3", "values": [{"smiles": "O=C1N=c2ccc(C(=O)NCc3ccco3)cc2=NC1=O", "note": "[ZINC38767171, N-(2-furylmethyl)-2,3-dioxo-quinoxaline-6-carboxamide]", "pIC50": 6.60}, {"smiles": "C=CCNS(=O)(=O)c1ccc2c(c1)=NC(=O)N=2", "note": "[ZINC39699427, N-allyl-2-oxo-benzimidazole-5-sulfonamide]", "pIC50": 6.71}]}, {"target": "T1, WT Nav1.5-α subunits", "assay": "Whole-cell patch clamp, single voltage-pulse protocol (peak INa, conductance, fast inactivation) in transiently transfected HEK293 cells", "format": "cell-based", "conditions": "10 μM", "procedure": "as §1, §2\n(§4) Conductance was measured by a protocol that depolarized the membrane from −100 mV to +80 mV in increments of +5 mV for 19 ms. Prior to the test pulse, channels were allowed to recover from fast inactivation at −130 mV for 197 ms. The tested compounds had no effect on the conductance midpoint (FIGS. 6A-F).\n(§5) At voltages greater than −50 mV, the fast inactivation T values were calculated from the mono-exponential fit to the decay of sodium current.", "units": {"% Block −20 mV": "%", "fast inactivation onset time constant FI +10 mV": "ms", "fast inactivation onset time constant FI −10 mV": "ms", "fast inactivation onset time constant FI −30 mV": "ms", "fast inactivation onset time constant FI −50 mV": "ms"}, "values": [{"smiles": "O=C1N=c2ccc(C(=O)NCc3ccco3)cc2=NC1=O", "note": "[ZINC38767171, N-(2-furylmethyl)-2,3-dioxo-quinoxaline-6-carboxamide]", "% Block −20 mV": "−24.21", "fast inactivation onset time constant FI +10 mV": "0.25 ± 0.05", "fast inactivation onset time constant FI −10 mV": "0.39 ± 0.06", "fast inactivation onset time constant FI −30 mV": "0.71 ± 0.12", "fast inactivation onset time constant FI −50 mV": "1.70 ± 0.33"}, {"smiles": "C=CCNS(=O)(=O)c1ccc2c(c1)=NC(=O)N=2", "note": "[ZINC39699427, N-allyl-2-oxo-benzimidazole-5-sulfonamide]", "% Block −20 mV": "−34.00", "fast inactivation onset time constant FI +10 mV": "0.21 ± 0.03", "fast inactivation onset time constant FI −10 mV": "0.31 ± 0.04", "fast inactivation onset time constant FI −30 mV": "0.54 ± 0.09", "fast inactivation onset time constant FI −50 mV": "1.32 ± 0.24"}]}, {"target": "T1, WT Nav1.5-α subunits", "assay": "Whole-cell patch clamp, single voltage-pulse protocol (peak INa, conductance, fast inactivation) in transiently transfected HEK293 cells", "format": "cell-based", "conditions": "10 μM; normalized peak INa; 37° C.", "procedure": "as §1, §2, §4, §5", "values": [{"smiles": "O=C1N=c2ccc(C(=O)NCc3ccco3)cc2=NC1=O", "note": "[ZINC38767171, N-(2-furylmethyl)-2,3-dioxo-quinoxaline-6-carboxamide]", "Peak INa −20 mV": "−0.72 ± 0.06"}, {"smiles": "C=CCNS(=O)(=O)c1ccc2c(c1)=NC(=O)N=2", "note": "[ZINC39699427, N-allyl-2-oxo-benzimidazole-5-sulfonamide]", "Peak INa −20 mV": "−0.66 ± 0.04"}]}, {"target": "T1, WT Nav1.5-α subunits", "assay": "Whole-cell patch clamp, single voltage-pulse protocol (peak INa, conductance, fast inactivation) in transiently transfected HEK293 cells", "format": "cell-based", "conditions": "50 μM", "procedure": "as §1, §2, §4, §5", "units": {"% Block −20 mV": "%", "fast inactivation onset time constant FI +10 mV": "ms", "fast inactivation onset time constant FI −10 mV": "ms", "fast inactivation onset time constant FI −30 mV": "ms", "fast inactivation onset time constant FI −50 mV": "ms"}, "values": [{"smiles": "O=C1N=c2ccc(C(=O)NCc3ccco3)cc2=NC1=O", "note": "[ZINC38767171, N-(2-furylmethyl)-2,3-dioxo-quinoxaline-6-carboxamide]", "% Block −20 mV": "−37.89", "fast inactivation onset time constant FI +10 mV": "0.34 ± 0.06", "fast inactivation onset time constant FI −10 mV": "0.58 ± 0.08", "fast inactivation onset time constant FI −30 mV": "0.94 ± 0.10", "fast inactivation onset time constant FI −50 mV": "1.79 ± 0.15"}, {"smiles": "C=CCNS(=O)(=O)c1ccc2c(c1)=NC(=O)N=2", "note": "[ZINC39699427, N-allyl-2-oxo-benzimidazole-5-sulfonamide]", "% Block −20 mV": "−42.00", "fast inactivation onset time constant FI +10 mV": "0.25 ± 0.03", "fast inactivation onset time constant FI −10 mV": "0.35 ± 0.04", "fast inactivation onset time constant FI −30 mV": "0.63 ± 0.08", "fast inactivation onset time constant FI −50 mV": "1.46 ± 0.09"}]}, {"target": "T1, WT Nav1.5-α subunits", "assay": "Whole-cell patch clamp, single voltage-pulse protocol (peak INa, conductance, fast inactivation) in transiently transfected HEK293 cells", "format": "cell-based", "conditions": "50 μM; normalized peak INa; 37° C.", "procedure": "as §1, §2, §4, §5", "values": [{"smiles": "O=C1N=c2ccc(C(=O)NCc3ccco3)cc2=NC1=O", "note": "[ZINC38767171, N-(2-furylmethyl)-2,3-dioxo-quinoxaline-6-carboxamide]", "Peak INa −20 mV": "−0.59 ± 0.11"}, {"smiles": "C=CCNS(=O)(=O)c1ccc2c(c1)=NC(=O)N=2", "note": "[ZINC39699427, N-allyl-2-oxo-benzimidazole-5-sulfonamide]", "Peak INa −20 mV": "−0.58 ± 0.06"}]}, {"target": "T1, WT Nav1.5-α subunits", "assay": "Whole-cell patch clamp, single voltage-pulse protocol (peak INa, conductance, fast inactivation) in transiently transfected HEK293 cells", "format": "cell-based", "conditions": "100 μM", "procedure": "as §1, §2, §4, §5", "units": {"% Block −20 mV": "%", "fast inactivation onset time constant FI +10 mV": "ms", "fast inactivation onset time constant FI −10 mV": "ms", "fast inactivation onset time constant FI −30 mV": "ms", "fast inactivation onset time constant FI −50 mV": "ms"}, "values": [{"smiles": "O=C1N=c2ccc(C(=O)NCc3ccco3)cc2=NC1=O", "note": "[ZINC38767171, N-(2-furylmethyl)-2,3-dioxo-quinoxaline-6-carboxamide]", "% Block −20 mV": "−38.95", "fast inactivation onset time constant FI +10 mV": "0.41 ± 0.11", "fast inactivation onset time constant FI −10 mV": "0.60 ± 0.13", "fast inactivation onset time constant FI −30 mV": "1.05 ± 0.21", "fast inactivation onset time constant FI −50 mV": "1.92 ± 0.38"}, {"smiles": "C=CCNS(=O)(=O)c1ccc2c(c1)=NC(=O)N=2", "note": "[ZINC39699427, N-allyl-2-oxo-benzimidazole-5-sulfonamide]", "% Block −20 mV": "−47.00", "fast inactivation onset time constant FI +10 mV": "0.26 ± 0.02", "fast inactivation onset time constant FI −10 mV": "0.40 ± 0.03", "fast inactivation onset time constant FI −30 mV": "0.72 ± 0.04", "fast inactivation onset time constant FI −50 mV": "1.61 ± 0.18"}]}, {"target": "T1, WT Nav1.5-α subunits", "assay": "Whole-cell patch clamp, single voltage-pulse protocol (peak INa, conductance, fast inactivation) in transiently transfected HEK293 cells", "format": "cell-based", "conditions": "100 μM; normalized peak INa; 37° C.", "procedure": "as §1, §2, §4, §5", "values": [{"smiles": "O=C1N=c2ccc(C(=O)NCc3ccco3)cc2=NC1=O", "note": "[ZINC38767171, N-(2-furylmethyl)-2,3-dioxo-quinoxaline-6-carboxamide]", "Peak INa −20 mV": "−0.58 ± 0.10"}, {"smiles": "C=CCNS(=O)(=O)c1ccc2c(c1)=NC(=O)N=2", "note": "[ZINC39699427, N-allyl-2-oxo-benzimidazole-5-sulfonamide]", "Peak INa −20 mV": "−0.53 ± 0.07"}]}, {"target": "T1, WT Nav1.5-α subunits", "assay": "Whole-cell patch clamp, single voltage-pulse protocol (peak INa, conductance, fast inactivation) in transiently transfected HEK293 cells", "format": "cell-based", "conditions": "Hill curve slope", "procedure": "as §1, §2, §4, §5", "values": [{"smiles": "O=C1N=c2ccc(C(=O)NCc3ccco3)cc2=NC1=O", "note": "[ZINC38767171, N-(2-furylmethyl)-2,3-dioxo-quinoxaline-6-carboxamide]", "Peak INa Slope": 1.697}, {"smiles": "C=CCNS(=O)(=O)c1ccc2c(c1)=NC(=O)N=2", "note": "[ZINC39699427, N-allyl-2-oxo-benzimidazole-5-sulfonamide]", "Peak INa Slope": 0.236}]}, {"target": "T1, WT Nav1.5-α subunits", "assay": "Whole-cell patch clamp, single voltage-pulse protocol (peak INa, conductance, fast inactivation) in transiently transfected HEK293 cells", "format": "cell-based", "conditions": "Hill curve; single voltage-pulse protocol", "procedure": "as §1, §2, §4, §5", "values": [{"smiles": "O=C1N=c2ccc(C(=O)NCc3ccco3)cc2=NC1=O", "note": "[ZINC38767171, N-(2-furylmethyl)-2,3-dioxo-quinoxaline-6-carboxamide]", "pIC50": 5.12}, {"smiles": "C=CCNS(=O)(=O)c1ccc2c(c1)=NC(=O)N=2", "note": "[ZINC39699427, N-allyl-2-oxo-benzimidazole-5-sulfonamide]", "pIC50": 5.19}]}, {"target": "T1, WT Nav1.5-α subunits", "assay": "Whole-cell patch clamp, single voltage-pulse protocol (peak INa, conductance, fast inactivation) in transiently transfected HEK293 cells", "format": "cell-based", "conditions": "open-state voltages between −30 and +10 mV", "procedure": "as §1, §2, §4, §5", "values": [{"smiles": "O=C1N=c2ccc(C(=O)NCc3ccco3)cc2=NC1=O", "note": "[ZINC38767171, N-(2-furylmethyl)-2,3-dioxo-quinoxaline-6-carboxamide]", "effect on fast inactivation kinetics": "significantly decelerated; also recorded: decelerate fast inactivation kinetics, but not significantly"}]}, {"target": "T1, WT Nav1.5-α subunits", "assay": "Whole-cell patch clamp, single voltage-pulse protocol (peak INa, conductance, fast inactivation) in transiently transfected HEK293 cells", "format": "cell-based", "conditions": "single voltage-pulse protocol", "procedure": "as §1, §2, §4, §5", "values": [{"smiles": "C=CCNS(=O)(=O)c1ccc2c(c1)=NC(=O)N=2", "note": "[ZINC39699427, N-allyl-2-oxo-benzimidazole-5-sulfonamide]", "effect on peak INa": "considerably blocked peak INa at low concentrations"}]}]}
